{"source": "patent US10758551B2", "about": "“Methods and compositions for treating pancreatitis” (BAYLOR RESEARCH INSTITUTE, priority 2015, dated 2020)", "key": {"[1]": {"system": "cerulein-induced pancreatitis", "experiment": "Standard chronic pancreatitis model: cerulein 7 hourly IP injections once per week for 4 weeks, WA one hour prior", "format": "in vivo, C57BL/6 mice", "settings": "WA (1 mg/kg) without cerulein; FIG. 2B"}, "[2]": {"system": "cerulein-induced pancreatitis", "experiment": "Standard chronic pancreatitis model: cerulein 7 hourly IP injections once per week for 4 weeks, WA one hour prior", "format": "in vivo, C57BL/6 mice", "experimental": "(§1) C57BL/6 mice were injected with 7 hourly IP injections of cerulein at […] once per week for 4 weeks in a standard model for chronic pancreatitis or 6 hourly IP injections of cerulein at […] twice per week for 8 weeks in a stringent model for chronic pancreatitis. WA was administered one hour prior to cerulein beginning in week 1 in the standard model and beginning in week 5 in the stringent model of chronic pancreatits. Incidence of pancreatitis was confirmed by histopathological analysis of pancreas tissue, serum amylase levels, and neutrophil infiltration into pancreatic tissue. Cell proliferation was assessed by Ki67 staining. Pancreatic stone protein REG1α was analyzed by immunohistochemical staining. ImageJ software was used to quantify the area of positively stained cells.\n(§2) Chronic pancreatitis (CP) model: Animals were subjected to repeated episodes of acute pancreatitis by supramaximal dose (50 ug/kg) of cerulein administration. Standard Chronic pancreatitis: Mice were fasted overnight prior cerulein injection with ad-libitum supply of water. CP was induced when cerulein was injected i.p. (50 ug/kg) every hour for a total of 7 injection, this injection was repeated once a week for 4 weeks. Control mice were injected with saline as sham treatment. Another group of mice received WA (1.25 mg/kg) 1 hr before the first cerulein injection every week (n=6 mice/group). Mice were then sacrificed and blood and tissue were processed as previously mentioned. Stringent chronic pancreatitis: Mice were fasted overnight prior cerulein injection with ad-libitum supply of water. CP was induced when cerulein was injected i.p. (50 ug/kg) every hour for a total of 6 injection, this injection was repeated twice a week for 8 weeks. WA (0.625 mg/kg) was injected 1 hr prior to first cerulein injection but administration was initiated at week 5 and continued till the end of the experiment. Mice were then sacrificed and tissue was harvested as previously mentioned.\nAmylase activity assay: Serum samples obtained from mice after treatment were aliquoted and stored at −80 C until further analysis. Serum was analyzed for amylase activity as per the manufacturer's protocol.\n(§3) Histology and Immunohistochemistry: Pancreas tissue was placed in 10% formalin immediately after harvesting and fixed for at least 48 hrs at 4° C. before processing. Tissue samples were paraffin embedded and 5 um sections were made and mounted on slides for staining. Hematoxylin and Eosin (H&E) staining was performed for histopathological evaluation. Sirius Red Staining was performed as per manufacturer's protocol on the sections to evaluate fibrotic change in the tissue section. To perform immunohistochemical staining, the sections were deparaffinized in xylene and rehydrated using ethanol. The slides were incubated in a citrate buffer of pH 6 with at 97° C. for 20 minutes. Following the antigen retrieval process, the slides were carefully washed 3 times for 5 minutes in Tris-buffered saline (TBS) containing 0.025% Triton X-100. The slides were blocked in 1% bovine serum albumin (BSA) in TBS for 2 hours at room temperature to block non-specific binding of the antibodies. Then the slides were incubated overnight with primary antibodies which were diluted in TBS with 1% BSA. The following day, the slides were gently rinsed 3 times for 5 minutes in TBS 0.025% Triton X-100. TRITC or FITC labelled secondary antibodies from Invitrogen were diluted in TBS with 1% BSA. The slides were counterstained with DAPI and mounted for microscopic analysis. ImageJ software was used to perform semi-quantitative analysis of the staining.\nqRT-PCR: Pancreas tissue samples were stored in RNAlater at −80° C. until extraction procedure. Total RNA from the pancreas tissue were extracted using TRIzol reagent. Tissue was homogenized and debris was removed by centrifugation. Chloroform was added to separate the RNA from other biomolecules, and further precipitated using iso-propanol. […]"}, "NF-κB p65": {"system": "NF-κB p65", "experiment": "NF-κB p65 immunohistochemical staining and protein blot of pancreas of cerulein treated mice", "format": "in vivo, mouse", "settings": "WA + cerulein vs cerulein treated mice", "experimental": "as §3, with “The slides were counterstained with DAPI and mounted for microscopic analysis.” left out"}, "[3]": {"system": "cerulein induced acute pancreatitis", "experiment": "Acute pancreatitis model: cerulein 7 hourly IP injections, WA one hour prior", "format": "in vivo, C57BL/6 mice", "settings": "WA 1.25 mg/kg, n=5/group", "experimental": "Acute pancreatitis (AP) model: Animals were fasted overnight prior to induction of pancreatitis by cerulein, water was given ad-libitum. Mice were injected with Cerulein (50 ug/kg intraperitoneally) or saline every hour for a total of 7 injections and were sacrificed 1 hr after the last injection. WA (1.25 mg/kg) was administered 1 hr before first cerulein injection (n=5 mice/group). […] Pancreas was divided for immunohistochemistry, RNA extraction, protein extraction, immune cell infiltration analysis. Amylase activity assay: Serum samples obtained from mice after treatment were aliquoted and stored at −80 C until further analysis. Serum was analyzed for amylase activity as per the manufacturer's protocol. Immune cell infiltration assay: Cell suspension was prepared from the pancreas tissue after digestion with collagenase (2 mg/mL) at 37° C. for 15 mins. Tissue was further mechanically digested by pipetting several times, the suspension was then washed and filtered to obtain only the single cell fraction. Cell suspension obtained was used for flow cytometric analysis of infiltrated immune cells. 1×10^6 pancreatic cells were labelled with anti-CD45, anti-CD11b, anti-CD14, and anti-Ly6g antibodies. Stained cells were detected using FACScanto II and data were analyzed using FlowJo software. To model acute pancreatitis, C57BL/6 mice were injected with 7 hourly IP injections of cerulein at 50 μg/kg. WA (1.25 mg/kg) was administered one hour prior to cerulein. […] Inflammatory cell infiltration was increased in cerulein-treated mice (FIGS. 18B, 18E, and 18H) compared to controls (FIGS. 18A, 18D, and 18G), but were reduced in cerulein and WA-treated mice (FIGS. 18C, 18F, and 18I) compared to cerulein-treated mice."}, "[4]": {"system": "cerulein-induced pancreatitis", "experiment": "Stringent chronic pancreatitis model: cerulein 6 hourly IP injections twice per week for 8 weeks, WA from week 5", "format": "in vivo, C57BL/6 mice", "settings": "for Histopathology (H&E, Sirius red): pancreas damage, acinar cell atrophy, mononuclear cell infiltration, fibrosis: stringent model, cerulein (50 ug/kg) + Withaferin vs cerulein only, FIGS. 3C, 3F, six animals per group", "experimental": "as §1, §2, §3\nqRT-PCR: Pancreas tissue samples were stored in RNAlater at −80° C. until extraction procedure. Total RNA from the pancreas tissue were extracted using TRIzol reagent. Tissue was homogenized and debris was removed by centrifugation. Chloroform was added to separate the RNA from other biomolecules, and further precipitated using iso-propanol. RNA pellet was washed with ethanol and quantified using nanodrop 2000. cDNA synthesis was performed using high capacity cDNA reverse transcription kit as per manufacturer's protocol. […]"}}, "note": "“Also recorded” adds a separate entry of the source.", "data": [{"smiles": "CC1=C(CO)C(=O)O[C@@H]([C@@H](C)[C@H]2CC[C@H]3[C@@H]4C[C@H]5O[C@]56[C@@H](O)C=CC(=O)[C@]6(C)[C@H]4CC[C@]23C)C1", "note": "[WA, (4β,5β,6β,22R)-5,6-Epoxy-4,22,27-trihydroxy-1-oxoergosta-2,24-dien-26-oic acid 6-lactone]", "values": [{"measurement": "Histopathology (H&E) of pancreas, WA alone", "setting": "[1]", "value": "normal phenotype"}, {"measurement": "Ki67+ area in pancreas (ImageJ, semi-quantitative)", "setting": "[2]; Standard CP model, FIG. 9A, n=5/group", "value": "significantly lower Ki67+ area"}, {"measurement": "Histopathology (H&E): acinar cell atrophy, mononuclear cell infiltration, severity of chronic pancreatitis", "setting": "[2]; WA + cerulein (50 ug/kg) vs cerulein only, FIG. 2D, six animals per group", "value": "significantly reduced acinar cell atrophy and infiltration of mononuclear cells; also recorded: significantly reduced severity of chronic pancreatitis"}, {"measurement": "Serum amylase levels", "setting": "[2]; WA + cerulein treated mice, cerulein only 952.8±228.8, p=0.045, FIG. 4", "value": "696.3 ± 98.6", "unit": "nmol/min/mL"}, {"measurement": "Neutrophils migrated into pancreas", "setting": "[2]; WA treated mice, cerulein only 3,742±1,188, p=0.03, FIGS. 7F, 7G, standard or stringent CP model not stated", "value": "719±276 cells per objective field at a magnification of ×200"}, {"measurement": "REG1α immunohistochemical staining of pancreas", "setting": "[2]; WA treatment, cerulein only 3,779±448, p=0.003, brought to control levels, model not stated", "value": "544±43"}, {"measurement": "Ki67+ cells in the pancreas", "setting": "[2]; WA+cerulein, cerulein only 20.0±16.0, FIG. 8, 9A-B (percentage of Ki67+ cells, ImageJ), model not stated", "value": "3.8±2.9"}, {"measurement": "Ly6g+ granulocyte infiltration of pancreas (immunohistochemical staining)", "setting": "[2]; cerulein + WA vs cerulein, FIG. 7F, n=5/group, model not stated", "value": "significantly reduced inflammatory cell infiltration"}, {"measurement": "Serum amylase level compared to cerulein treated mice", "setting": "[2]; serum at week 3 and week 4, one hour after last injection, FIG. 4, n=6/group", "value": "significantly lower serum amylase level"}, {"measurement": "Inflammasome gene expression in pancreas (qRT-PCR)", "setting": "[2]; standard CP model, HMGB1, Pycard, NLRP3, IL-18, IL-1b, FIG. 13, n=4/group", "value": "decreased; also recorded: significantly reduced inflammasome related genes"}, {"measurement": "Pro-inflammatory and pro-apoptotic gene expression in pancreas (qRT-PCR)", "setting": "[2]; standard CP model, IL-6, TNFα, Nos2, Casp3, Casp7, Bax, FIG. 15, n=4/group", "value": "decreased; also recorded: significantly reduced most of these gene signals"}, {"measurement": "ER stress gene expression in pancreas (qRT-PCR)", "setting": "[2]; standard CP model, Perk, Atf6, Ern1, Eif2a, Atf4, xbp1, Chop, FIG. 11, n=4/group", "value": "decreased; also recorded: significantly reduced ER stress gene signals"}, {"measurement": "IL-6 in pancreas tissue lysate (Luminex)", "setting": "[2]; standard chronic pancreatitis, FIG. 5A, n=4/group", "value": "effectively blocked production"}, {"measurement": "MCP-1 in pancreas tissue lysate (Luminex)", "setting": "[2]; standard chronic pancreatitis, FIG. 5B, n=4/group", "value": "effectively blocked production"}, {"measurement": "NF-κB p65 translocation into the nucleus (immunohistochemical staining of pancreatic tissue)", "setting": "NF-κB p65; FIG. 10C", "value": "significantly prevented NF-κB translocation into the nucleus"}, {"measurement": "NF-κB P65 protein expression in pancreatic lysate (protein blot)", "setting": "NF-κB p65; FIG. 10D", "value": "significantly inhibited overexpression"}, {"measurement": "Inflammatory cell infiltration into pancreas (flow cytometry)", "setting": "[3]; CD45+CD11b+ myeloid cells, CD45+Ly6g+ granulocytes, CD45+CD14+ monocytes, FIG. 18", "value": "reduced percentage of infiltrating cells"}, {"measurement": "Leucocyte (CD45+) infiltration into pancreas (flow cytometry)", "setting": "[3]; FIG. 19G-J", "value": "reduced percentage of infiltrating cells"}, {"measurement": "Serum amylase compared to cerulein treated mice", "setting": "[3]; serum one hour after last cerulein injection, FIG. 17", "value": "significantly decreased; also recorded: significantly reduced serum amylase"}, {"measurement": "Ki67+ area in pancreas (ImageJ, semi-quantitative)", "setting": "[4]; Stringent CP Model, FIG. 9B, n=5/group", "value": "significantly lower Ki67+ area"}, {"measurement": "Inflammasome gene expression in pancreas (qRT-PCR)", "setting": "[4]; stringent CP model, HMGB1, NLRP3, IL-1b, FIG. 14, n=4/group", "value": "decreased; also recorded: significantly reduced inflammasome related genes"}, {"measurement": "Pro-inflammatory and pro-apoptotic gene expression in pancreas (qRT-PCR)", "setting": "[4]; stringent CP model, IL-6, TNFα, Nos2, Bax, FIG. 16, n=4/group", "value": "decreased; also recorded: significantly reduced most of these gene signals"}, {"measurement": "ER stress gene expression in pancreas (qRT-PCR)", "setting": "[4]; stringent CP model, Perk, Ern1, Atf6, Chop, xbp1, eif2a, Atf4, FIG. 12, n=4/group", "value": "decreased; also recorded: significantly reduced ER stress gene signals"}, {"measurement": "IL-6 in pancreas tissue lysate (Luminex)", "setting": "[4]; stringent chronic pancreatitis, FIG. 6A, n=4/group", "value": "effectively blocked production"}, {"measurement": "MCP-1 in pancreas tissue lysate (Luminex)", "setting": "[4]; stringent chronic pancreatitis, FIG. 6B, n=4/group", "value": "effectively blocked production"}, {"measurement": "Histopathology (H&E, Sirius red): pancreas damage, acinar cell atrophy, mononuclear cell infiltration, fibrosis", "setting": "[4]", "value": "significantly reduced acinar cell atrophy and infiltration of mononuclear cells"}, {"measurement": "Histopathology (H&E, Sirius red): pancreas damage, acinar cell atrophy, mononuclear cell infiltration, fibrosis", "setting": "[4]; listed as Withaferin", "value": "significantly reduced pancreas damage and fibrosis"}]}]}
